Read-outs that look alike come from different tables or passages of the source.
Columns and labels:
[1] = tested on: apomorphine-induced vomiting; experiment: Antagonistic effect on apomorphine-induced vomiting; assay type: in vivo, dogs (Beagle); conditions: Canis lupus familiaris, sc, read-out: Inhibitory ratio (apomorphine-induced vomiting)
Procedure: A group of 3-4 dogs (Beagle, 8-15 kg) was used for examining effects on the test compounds on apomorphine-induced vomiting, a known test for evaluating neuroleptic drugs.
Each dog was given a subcutaneous injection of apomorphine hydrochloride (0.3 mg/kg) two hours after the treatment of the test compounds. Then, the frequency of oral vomiting was counted for one hour. The mean counts of the compound-treated group were compared with those of the corresponding control (non-dosed) group, and the percent inhibition was calculated.

dopamine (D2) receptor = biological target: T1, dopamine (D2) receptor (Rattus norvegicus, UniProt P61169); experiment: In vitro binding to dopamine (D2) receptor, [3H] spiperone; set-up: species or system rats
T1 construct: Crude synaptosome fractions were prepared from some brain regions in rats for receptor sources; from tissue
T1 sequence (P61169 whole entry): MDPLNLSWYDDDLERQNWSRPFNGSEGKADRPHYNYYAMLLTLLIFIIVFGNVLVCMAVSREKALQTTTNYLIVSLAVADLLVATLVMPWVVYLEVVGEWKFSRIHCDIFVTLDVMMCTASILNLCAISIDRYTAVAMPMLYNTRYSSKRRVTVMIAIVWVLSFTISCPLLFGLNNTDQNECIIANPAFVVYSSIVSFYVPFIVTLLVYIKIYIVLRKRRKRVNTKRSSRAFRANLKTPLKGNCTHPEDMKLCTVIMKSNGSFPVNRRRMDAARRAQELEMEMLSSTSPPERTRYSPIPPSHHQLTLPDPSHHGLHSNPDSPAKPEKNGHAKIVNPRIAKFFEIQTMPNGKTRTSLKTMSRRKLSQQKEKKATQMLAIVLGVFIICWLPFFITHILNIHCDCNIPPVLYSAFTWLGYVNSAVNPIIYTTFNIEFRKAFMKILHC
Procedure: (§1) Dopamine (D2), serotonin (S1, S2) and adrenaline (α1) receptor binding assays were carried out according to the methods of I. Creese et al. [Eur. J. Pharmacol., 46, 377 (1977), S. J. Peroutka et al. [Mol. Pharmacol. 16, 687 (1979)], J. E. Leysen et al. [Mol. Pharmacol., 21, 301 (1982)] and D. C. U'Prichard et al. [Mol. Pharmacol., 13, 454 (1977)], respectively.
(§2) Crude synaptosome fractions were prepared from some brain regions in rats for receptor sources. Radioactive ligands used were [^3 H] spiperone (D2), [^3 H] serotonin (S1), [^3 H] ketanserin (S2) and [^3 H] WB-4101 (α1). The binding assay was performed by incubating aliquots of synaptosome fraction in buffer solution (final volume: 1 ml) containing a [^3 H] labelled ligand and a test compound. The assay was terminated by rapid filtration through Whatman GF/B glass fiber filters attached to a cell-harvester (Brandel) and radioactivity on the filters was counted in a Packard Triscarb scintillation counter. Specific binding was calculated as a difference between amounts of radioactivity in the presence and absence of an unlabelled ligand [spiperone (D2), serotonin (S1), methysergide (S2) and prazosin (α1)]. The IC50 value of the test compounds (concentration causing 50% inhibition of [^3 H] ligand specific binding) was determined by probit analysis.

[2] = tested on: brain monoamine metabolites; experiment: Increasing effect on concentration of brain monoamine metabolites; assay type: in vivo, mice (Std-ddy strain); conditions: Mus musculus, 2 h, non-dosed=100
Procedure: A group of 5 male mice (Std-ddy strain, 25-30 g) was used for examining effect of the test compounds on concentration of brain monoamine metabolites.
Mice were killed by decapitation 2 hours after treatment with the test compounds. Brains were quickly taken out, homogenized in 1N formic acid-acetone solution, and centrifuged in a refrigerated ultracentrifuge. The supernatant was evaporated by blowing with N2 gas. Then, the residue was again resolved in 0.01 N acetic acid, and served for determining concentration of dopamine metabolites, 3,4-dihydroxyphenylacetic acid (DOPAC) and homovanillic acid (HVA), a norepinephrine metabolite, 3-methyl-4-hydroxyphenylethylene glycol (MOPEG), and a serotonin metabolite, 5-hydroxyindole-3-acetic acid (5-HIAA) concentrations by HPLC with electrochemical detection. The effect of the test compounds on concentration of each monoamine metabolite is shown as % of control (level of non-dosed animals=100) in Table 4.

serotonin (S2) receptor = biological target: T2, serotonin (S2) receptor (Rattus norvegicus, UniProt P14842); experiment: In vitro binding to serotonin (S2) receptor, [3H] ketanserin; set-up: species or system rats; conditions: [3H] ketanserin, rat brain crude synaptosome fraction
T2 construct: Crude synaptosome fractions were prepared from some brain regions in rats for receptor sources; from tissue
T2 sequence (P14842 whole entry): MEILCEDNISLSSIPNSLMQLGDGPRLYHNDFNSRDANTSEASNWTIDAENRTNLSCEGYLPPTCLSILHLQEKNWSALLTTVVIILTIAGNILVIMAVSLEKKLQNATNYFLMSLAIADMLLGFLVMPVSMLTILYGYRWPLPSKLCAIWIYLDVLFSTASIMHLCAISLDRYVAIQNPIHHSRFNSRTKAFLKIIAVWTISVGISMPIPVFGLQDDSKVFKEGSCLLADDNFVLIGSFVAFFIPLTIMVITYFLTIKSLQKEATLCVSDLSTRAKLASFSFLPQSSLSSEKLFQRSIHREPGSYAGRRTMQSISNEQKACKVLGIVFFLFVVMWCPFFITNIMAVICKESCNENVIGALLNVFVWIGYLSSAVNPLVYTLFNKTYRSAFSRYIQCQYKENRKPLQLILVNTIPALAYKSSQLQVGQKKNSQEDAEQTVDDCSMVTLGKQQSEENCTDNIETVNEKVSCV
Procedure: as §1, §2

exploratory activity = experiment: Inhibitory effect on exploratory activity (Animex activity meter); assay type: in vivo, mice (Std-ddy strain); conditions: oral, 2 h after administration, 3 min counting; dose not given
Procedure: A group of 5 male mice (Std-ddy strain, 20-25 g) was used. Two hours after oral administration of the test compound, mice were placed individually in a test box (23×35×30 cm) on Animex activity meter (Farad Co.). Immediately thereafter, activity counting was started and lasted for three minutes. The mean counts of the compound-treated group were compared with those of the corresponding control (non-dosed) group, and the percent inhibition was calculated.

adrenaline (α1) receptor = experiment: In vitro binding to adrenaline (α1) receptor, [3H] WB-4101; set-up: species or system rats; conditions: [3H] WB-4101, rat brain crude synaptosome fraction
Procedure: as §1, §2

serotonin (S1) receptor = experiment: In vitro binding to serotonin (S1) receptor, [3H] serotonin; set-up: species or system rats; conditions: rat brain crude synaptosome fraction
Procedure: as §1, §2

[3] = tested on: scopolamine-induced deficit of spontaneous alternation; experiment: Improving effect on scopolamine-induced deficit of spontaneous alternation behavior (T-maze); assay type: in vivo, mice (Std-ddY strain); conditions: scopolamine hydrobromide 1 mg/kg i.p.
Source text: A group of 15-25 male mice (Std-ddY strain, 22-28 g) was used for evaluating effect of the test compounds on scopolamine-induced deficit of spontaneous alternation in a T-maze, which is a known animal model of memory impairment due to hypofunction of the cholinergic nervous system. The T-maze used consists of a stem and two arms which are 25 cm long, 5 cm wide and 10 cm high. The first 10 cm of the stem and last 10 cm of each arm are divided by sliding doors into start and goal boxes.
A test compound and scopolamine hydrobromide (1 mg/kg) were intraperitoneally administered to each mouse, and after 30 minutes a test of spontaneous alternation task in the T-maze was continuously repeated for 8 trials. Commonly, naive mice alternate each (right and left) goal box in turn, but scopolamine-treated animals tend to enter the same goal box repeatedly. The effect of the test compounds was expressed as % improvement (complete improvement to the alternation level of non-dosed mice=100%).

[4] = tested on: cycloheximide-induced amnesia of passive avoidance response; experiment: Improving effect on cycloheximide-induced amnesia of passive avoidance response; assay type: in vivo, mice (Std-ddY strain); conditions: cycloheximide 60 mg/kg s.c., retention at 24 h
Source text: Anti-amnesic effect of the test compounds was examined using mice given cycloheximide, which is a known amnesia-inducing agent.
A group of 15-20 male mice (Std-ddY strain, 27-33 g) was subjected to training and retention trials for a passive avoidance task in a step-down apparatus (30×30×50 cm) with a grid floor and a wooden platform (4×4×4 cm) in a center of the floor. In the training trial, each mouse was first placed on the platform. When the mouse stepped down on the grid floor, an electric shock (1 Hz, 0.5 sec, 60 VDC) was delivered to the feet for 15 seconds. Immediately after the training trial, cycloheximide (60 mg/kg, s.c.) and a test compound (i.p.) were administered. The retention trial was carried out 24 hours thereafter, the time from placing again each mouse placed on the platform until stepping down on the grid floor (step-down latency) was measured. The step-down latency in the retention trial was markedly shortened by treatment of cycloheximide (amnesia). The effect of test compounds was assessed by % improvement (complete improvement to the latency level of non-dosed animals=100%).

[5] = [3H] spiperone, rat brain crude synaptosome fraction, read-out: IC50 D2
[6] = read-out: 5-HIAA concentration, % of control
[7] = read-out: DOPAC concentration, % of control
[8] = read-out: HVA concentration, % of control
[9] = read-out: MOPEG concentration, % of control

SMILES | IC50 (dopamine (D2) receptor; [5]) [nM] | IC50 (serotonin (S2) receptor) [nM] | IC50 (adrenaline (α1) receptor) [nM] | IC50 (serotonin (S1) receptor) [nM] | response vs control in vivo at 10 mg/kg [2, 6] [%] | response vs control in vivo at 10 mg/kg [2, 7] [%] | response vs control in vivo at 10 mg/kg [2, 8] [%] | response vs control in vivo at 10 mg/kg [2, 9] [%] | Improvement (spontaneous alternation) ([3]; dose 10.0 mg/kg i.p.) [%] | Improvement (step-down latency) ([4]; dose 0.5 mg/kg i.p.) [%] | Improvement (step-down latency) ([4]; dose 2.0 mg/kg i.p.) [%] | also measured
CCN1CCN(c2cc(-c3ccc(F)cc3)c3c(n2)CCCCCC3)CC1 [Example 1b, 2-(4-ethyl-1-piperazinyl)-4-(4-fluorophenyl)-5,6,7,8,9,10-hexahydrocycloocta[b]pyridine] | 46 | 7 | 92 |  |  |  |  |  |  |  |  | inhibition in vivo at 0.3 mg/kg ([1]; dose 0.3 mg/kg, apomorphine 0.3 mg/kg s.c. 2 h after compound): 88%; response vs control in vivo at 1 mg/kg [2, 6]: 102%; response vs control in vivo at 1 mg/kg [2, 7]: 235%; response vs control in vivo at 1 mg/kg [2, 8]: 212%; response vs control in vivo at 1 mg/kg [2, 9]: 118%; Inhibitory ratio (exploratory activity) (exploratory activity): 83.7%
CCN1CCN(c2cc(-c3ccc(F)cc3)c3c(n2)CCCC3)CC1 [Example 15] | 58 | 19 | 35 | 1700 | 108 | 277 | 235 | 118 |  |  |  | inhibition in vivo at 3 mg/kg ([1]; dose 3.0 mg/kg, apomorphine 0.3 mg/kg s.c. 2 h after compound): 100%
CCN1CCN(c2cc(-c3ccccc3)c3c(n2)CCCCC3)CC1 [Example 23, 2-(4-Ethyl-1-piperazinyl)-4-phenyl-6,7,8,9-tetrahydro-5H-cyclohepta[b]pyridine] | 96 | 7.7 | 320 | 2900 | 145 | 344 | 320 | 115 |  |  |  | 
c1ccc(-c2cc(N3CCNCC3)nc3c2CCCC3)cc1 [Example 86, 2-(1-piperazinyl)-4-phenyl-5,6,7,8-tetrahydroquinoline] | 730 | 81 | 530 | 1400 |  |  |  |  | 47.6 |  |  | 
c1ccc(-c2cc(N3CCNCC3)nc3c2CCC3)cc1 [Example 87, 2-(1-Piperazinyl)-4-phenyl-6,7-dihydro-5H-1-pyrindine] | 270 | 28 | 94 | 820 | 136 | 180 | 194 | 117 |  | 48 | 77 | Improvement (spontaneous alternation) ([3]; dose 0.5 mg/kg i.p.): 48.0%; Improvement (spontaneous alternation) ([3]; dose 2.0 mg/kg i.p.): 60.0%
Fc1ccc(-c2cc(N3CCNCC3)nc3c2CCC3)cc1 [Example 88, 2-(1-Piperazinyl)-4-(4-fluorophenyl)-6,7-dihydro-5H-1-pyrindine] |  | 9.1 | 65 | 670 | 120 | 329 | 209 | 136 | 37.0 |  | 60 | inhibition in vivo at 3 mg/kg ([1]; 2 h): 94%; IC50 (dopamine (D2) receptor): 70 nM
Fc1ccc(-c2cc(N3CCNCC3)nc3c2CCCC3)cc1 [Example 92, 2-(1-Piperazinyl)-4-(4-fluorophenyl)-5,6,7,8-tetrahydroquinoline] | 300 | 27 | 380 | 1900 | 139 | 208 | 192 | 121 |  |  | 44 | Improvement (step-down latency) ([4]; dose 10.0 mg/kg i.p.): 78%
c1ccc(-c2cc(N3CCNCC3)nc3c2CCCCC3)cc1 [Example 96] | 660 | 62 | 1100 | 4900 | 127 | 201 | 194 | 115 |  | 81 | 64 | 
Fc1ccc(-c2cc(N3CCNCC3)nc3c2CCCCC3)cc1 [Example 97, 2-(1-Piperazinyl)-4-(4-fluorophenyl)-6,7,8,9-tetrahydro-5H-cyclohepta[b]pyridine] | 260 | 5.1 | 890 | 4100 | 128 | 232 | 176 | 125 | 32.0 | 38 | 36 | 
